Data: US4152436A, “Acylated pentadienone hydrazone, method for preparing the same, and use as fire ant control agents” (American Cyanamid Company, priority 1978, dated 1979)

Columns and labels:
Type in all cases: in vivo
[1] = system: Tobacco Budworm [Heliothis virescens (Fabricius)]; assay: Insecticide test, tobacco budworm 1st instar (eggs / newly hatched larvae on dipped cotton leaf); settings: 72 h, read-out: % kill, Tobacco Budworm 1st Instar
Experimental: Tobacco Budworm [Heliothis virescens (Fabricius)]
A cotton plant with 2 true leaves expanded is dipped for 3 seconds with agitation in a 300 ppm solution. A 1.25 to 2 cm square of cheesecloth with about 50 to 100 budworm eggs 0-24 hours old is also dipped in the test solution and placed on one leaf to dry. The leaf with the treated budworm eggs is removed from the plant and placed in a 236.6 ml (8-oz) Dixie cup with a wet 5 cm piece of dental wick and covered with a lid. The other leaf is placed in a similar cup with a wick and a piece of cheesecloth infested with 50-100 newly hatched larvae is added before covering the cup with a lid. After 3 days at 26.7° C., observations of egg hatch are made as well as kill of newly hatched larvae, any inhibition of feeding, or interference of any sort with normal development.
(§1) Compounds rated active (8 or 9) are further tested at reduced concentrations in 50% acetone:50% water.

[2] = system: Tobacco Budworm [Heliothis virescens (Fabricius)]; assay: whole plant or invertebrate; settings: 72 h, read-out: % kill, Tobacco Budworm 3rd Instar
Experimental: Third Instar Three cotton plants with just expanded cotyledons are dipped in a 1000 ppm solution, and placed in a hood to dry. When dry, each cotyledon is cut in half and each half is placed in one of ten 29.6 ml plastic medicine cups containing a 1.25 cm dental wick saturated with water, and one third instar budworm larva is added. The cup is capped and held for 3 days at 26.7° C., after which mortality counts are made. Compounds rated active (8 or 9) are further tested at reduced concentrations in 50% acetone:50% water.

[3] = system: Southern Armyworm [Spodoptera eridania (Cramer)]; assay: whole plant or invertebrate; settings: for mortality at 100 ppm / mortality at 1000 ppm / mortality at 10 ppm: 48 h, read-out: % kill, Southern Armyworm 3rd Instar; for pest or weed control at 1000 µg/mL: 168 h, second leaf, 7 days from original treatment, read-out: % kill, Southern Armyworm 3rd Instar, 7 days (residual activity)
Experimental: Southern Armyworm [Spodoptera eridania ([…] bean plant with just the primary leaves expanded to 7.6 to 10 cm is dipped for 3 seconds with agitation in a 1000 ppm solution and set in a hood to dry. […] The dish is covered and held at 26.7° C. After 2 days mortality counts and estimates of the amount of feeding are made. Compounds showing partial kill and/or inhibition of feeding are held for an extra day for further observations. All compounds showing activity as defined above are retested, using the second leaf on the bean plant, after an interval of 7 days from original treatment, as an assay of residual activity. Compounds rated active (8 or 9) are further tested at reduced concentrations in 50% acetone:50% water.

[4] = system: Cabbage Looper [Trichoplusia ni (Hubner)]; assay: Insecticide test, cabbage looper 3rd instar; settings: 48 h, 2 days, 26.7° C., read-out: % kill, Cabbage Looper 3rd Instar
Experimental: Cabbage Looper [Trichoplusia ni (Hubner)]
A primary leaf of a cotton plant is dipped in the test solution and agitated for 3 seconds. It is then set in a hood to dry. Following this, the leaf is placed in a 10 cm petri dish containing a moist filter paper at the bottom and 10 third-instar loopers. The dish is covered and held at 26.7° C. After 2 days, mortality counts and estimates of feeding damage are recorded. Those materials showing partial kill and/or inhibition of feeding are held for another day for further observations.
as §1

SMILES: CC(=O)N1CC(C)(C)CN=C1NN=C(C=Cc1ccc(Cl)cc1)C=Cc1ccc(Cl)cc1 [R1=Cl, R3=CH3]
- mortality at 10 ppm [1]: 0 to 40%
- mortality at 100 ppm [1]: 100%
- mortality at 10 ppm [2]: 0%
- mortality at 100 ppm [2]: 100%
- mortality at 1000 ppm [2]: 100%
- mortality at 100 ppm [3]: 100%
- mortality at 1000 ppm [3]: 100%
- mortality at 10 ppm [4]: 0%
- mortality at 100 ppm [4]: 100%
- mortality at 1000 ppm [4]: 100%

SMILES: CCCCCC(=O)N1CC(C)(C)CN=C1NN=C(C=Cc1ccc(C(F)(F)F)cc1)C=Cc1ccc(C(F)(F)F)cc1 [R1=CF3, R3=n-C5 H11]
- mortality at 10 ppm [2]: 0%
- mortality at 100 ppm [2]: 70%
- mortality at 1000 ppm [2]: 100%
- mortality at 10 ppm [3]: 0%
- mortality at 100 ppm [3]: 100%
- mortality at 1000 ppm [3]: 100%
- mortality at 10 ppm [4]: 0%
- mortality at 100 ppm [4]: 50%
- mortality at 1000 ppm [4]: 100%

SMILES: CCCCCCCC(=O)N1CC(C)(C)CN=C1NN=C(C=Cc1ccc(C(F)(F)F)cc1)C=Cc1ccc(C(F)(F)F)cc1 [R1=CF3, R3=n-C7 H15]
- mortality at 100 ppm [2]: 0%
- mortality at 1000 ppm [2]: 100%
- mortality at 10 ppm [3]: 0%
- mortality at 100 ppm [3]: 90%
- mortality at 1000 ppm [3]: 100%
- mortality at 100 ppm [4]: 90%
- mortality at 1000 ppm [4]: 100%

SMILES: CCCCCCCCCCCC(=O)N1CC(C)(C)CN=C1NN=C(C=Cc1ccc(C(F)(F)F)cc1)C=Cc1ccc(C(F)(F)F)cc1 [R1=CF3, R3=n-C11 H23]
- mortality at 10 ppm [2]: 0%
- mortality at 100 ppm [2]: 70%
- mortality at 1000 ppm [2]: 100%
- mortality at 10 ppm [3]: 0%
- mortality at 100 ppm [3]: 100%
- mortality at 1000 ppm [3]: 100%
- mortality at 10 ppm [4]: 0%
- mortality at 100 ppm [4]: 70%
- mortality at 1000 ppm [4]: 100%

SMILES: CC1(C)CN=C(NN=C(C=Cc2ccc(Cl)cc2)C=Cc2ccc(Cl)cc2)N(C(=O)c2ccccc2)C1
- mortality at 10 ppm [1]: 0 to 40%
- mortality at 100 ppm [1]: 41 to 60%
- mortality at 100 ppm [2]: 0%
- mortality at 1000 ppm [2]: 100%
- mortality at 10 ppm [3]: 30%
- mortality at 100 ppm [3]: 100%
- mortality at 1000 ppm [3]: 100%
- pest or weed control at 1000 µg/mL [3]: 100%
- mortality at 10 ppm [4]: 0%
- mortality at 100 ppm [4]: 100%
- mortality at 1000 ppm [4]: 100%

SMILES: CC(=O)N1CC(C)(C)CN=C1NN=C(C=Cc1ccc(C(F)(F)F)cc1)C=Cc1ccc(C(F)(F)F)cc1 [R1=CF3, R3=CH3, 1,5-bis(α,α,α-Trifluoro-p-tolyl)-1,4-pentadien-3-one, (1-acetyl-1,4,5,6-tetrahydro-5,5-dimethyl-2-pyrimidinyl)hydrazone]
- mortality at 100 ppm [1]: 0 to 40%
- mortality at 300 ppm [1]: 86 to 95%
- mortality at 10 ppm [2]: 40%
- mortality at 100 ppm [2]: 100%
- mortality at 1000 ppm [2]: 100%
- mortality at 10 ppm [3]: 0%
- mortality at 100 ppm [3]: 100%
- mortality at 1000 ppm [3]: 100%
- pest or weed control at 1000 µg/mL [3]: 100%
- mortality at 10 ppm [4]: 41 to 60%
- mortality at 100 ppm [4]: 86 to 95%
- mortality at 1000 ppm [4]: 100%

SMILES: CCCCC(CC)C(=O)N1CC(C)(C)CN=C1NN=C(C=Cc1ccc(C(F)(F)F)cc1)C=Cc1ccc(C(F)(F)F)cc1 (centres unmarked)
- mortality at 300 ppm [1]: 0%
- mortality at 100 ppm [2]: 40%
- mortality at 1000 ppm [2]: 100%
- mortality at 10 ppm [3]: 0%
- mortality at 100 ppm [3]: 100%
- mortality at 1000 ppm [3]: 100%
- mortality at 10 ppm [4]: 80%
- mortality at 100 ppm [4]: 90%
- mortality at 1000 ppm [4]: 100%

SMILES: O=C(c1ccccc1)N1CCCCN=C1NN=C(C=Cc1ccc(C(F)(F)F)cc1)C=Cc1ccc(C(F)(F)F)cc1
- mortality at 300 ppm [1]: 0 to 40%

SMILES: CC(=O)N1CCCCN=C1NN=C(C=Cc1ccc(C(F)(F)F)cc1)C=Cc1ccc(C(F)(F)F)cc1
- mortality at 10 ppm [1]: 0 to 40%
- mortality at 100 ppm [1]: 41 to 60%
- mortality at 10 ppm [2]: 0%
- mortality at 100 ppm [2]: 70%
- mortality at 1000 ppm [2]: 100%
- mortality at 10 ppm [3]: 100%
- mortality at 100 ppm [3]: 0%
- mortality at 1000 ppm [3]: 100%
- pest or weed control at 1000 µg/mL [3]: 100%
- mortality at 10 ppm [4]: 0%
- mortality at 100 ppm [4]: 100%
- mortality at 1000 ppm [4]: 100%

SMILES: CCCCCCCCCCCCCCCC(=O)N1CC(C)(C)CN=C1NN=C(C=Cc1ccc(Cl)cc1)C=Cc1ccc(Cl)cc1 [R1=Cl, R3=n-C15 H31]
- mortality at 100 ppm [2]: 0%
- mortality at 1000 ppm [2]: 100%
- mortality at 100 ppm [3]: 0%
- mortality at 1000 ppm [3]: 100%
- pest or weed control at 1000 µg/mL [3]: 100%
- mortality at 100 ppm [4]: 0%
- mortality at 1000 ppm [4]: 100%

SMILES: CC(C)=CC(=O)N1CC(C)(C)CN=C1NN=C(C=Cc1ccc(C(F)(F)F)cc1)C=Cc1ccc(C(F)(F)F)cc1 [R1=CF3, R3=(CH3)2 CCH]
- mortality at 100 ppm [2]: 0%
- mortality at 1000 ppm [2]: 100%
- mortality at 100 ppm [3]: 0%
- mortality at 1000 ppm [3]: 100%
- pest or weed control at 1000 µg/mL [3]: 0%
- mortality at 100 ppm [4]: 10%
- mortality at 1000 ppm [4]: 100%

SMILES: CC1(C)CN=C(NN=C(C=Cc2ccc(C(F)(F)F)cc2)C=Cc2ccc(C(F)(F)F)cc2)N(C(=O)c2ccc(C(C)(C)C)cc2)C1
- mortality at 10 ppm [1]: 0 to 40%
- mortality at 100 ppm [1]: 0 to 40%
- mortality at 300 ppm [1]: 86 to 95%
- mortality at 10 ppm [2]: 0%
- mortality at 100 ppm [2]: 100%
- mortality at 1000 ppm [2]: 100%
- mortality at 10 ppm [3]: 0%
- mortality at 100 ppm [3]: 90%
- mortality at 1000 ppm [3]: 100%
- pest or weed control at 1000 µg/mL [3]: 0%
- mortality at 10 ppm [4]: 0%
- mortality at 100 ppm [4]: 100%
- mortality at 1000 ppm [4]: 100%

SMILES: CCCCCCCCC=CCCCCCCCC(=O)N1CC(C)(C)CN=C1NN=C(C=Cc1ccc(C(F)(F)F)cc1)C=Cc1ccc(C(F)(F)F)cc1 [R1=CF3, R3=n-C8 H17CHCH(CH2)7]
- mortality at 10 ppm [1]: 0 to 40%
- mortality at 100 ppm [1]: 100%
- mortality at 10 ppm [2]: 0%
- mortality at 100 ppm [2]: 100%
- mortality at 1000 ppm [2]: 100%
- mortality at 10 ppm [3]: 20%
- mortality at 100 ppm [3]: 100%
- mortality at 1000 ppm [3]: 100%
- pest or weed control at 1000 µg/mL [3]: 100%
- mortality at 10 ppm [4]: 0%
- mortality at 100 ppm [4]: 100%
- mortality at 1000 ppm [4]: 100%

SMILES: CC(=O)N1CC(C)(C)CN=C1N(N=C(C=Cc1ccc(C(F)(F)F)cc1)C=Cc1ccc(C(F)(F)F)cc1)C(C)=O
- mortality at 100 ppm [2]: 0%
- mortality at 1000 ppm [2]: 100%
- mortality at 10 ppm [3]: 0%
- mortality at 100 ppm [3]: 100%
- mortality at 1000 ppm [3]: 100%
- pest or weed control at 1000 µg/mL [3]: 0%
- mortality at 10 ppm [4]: 41 to 60%
- mortality at 100 ppm [4]: 86 to 95%
- mortality at 1000 ppm [4]: 100%

SMILES: CC(C)C(=O)N1CC(C)(C)CN=C1NN=C(C=Cc1ccc(C(F)(F)F)cc1)C=Cc1ccc(C(F)(F)F)cc1 [R1=CF3, R3=(CH3)2 CH]
- mortality at 300 ppm [1]: 86 to 95%
- mortality at 10 ppm [2]: 0%
- mortality at 100 ppm [2]: 50%
- mortality at 1000 ppm [2]: 100%
- mortality at 10 ppm [3]: 0%
- mortality at 100 ppm [3]: 100%
- mortality at 1000 ppm [3]: 100%
- mortality at 10 ppm [4]: 0%
- mortality at 100 ppm [4]: 100%
- mortality at 1000 ppm [4]: 100%

SMILES: CCCCCCCCCC(=O)N1CC(C)(C)CN=C1NN=C(C=Cc1ccc(C(F)(F)F)cc1)C=Cc1ccc(C(F)(F)F)cc1 [R1=CF3, R3=n-C9 H19]
- mortality at 10 ppm [2]: 0%
- mortality at 100 ppm [2]: 100%
- mortality at 1000 ppm [2]: 100%
- mortality at 100 ppm [3]: 0%
- mortality at 1000 ppm [3]: 100%
- mortality at 10 ppm [4]: 0%
- mortality at 100 ppm [4]: 60%
- mortality at 1000 ppm [4]: 100%

SMILES: CCCCCCCCCCCCCCCC(=O)N1CCCCN=C1NN=C(C=Cc1ccc(C(F)(F)F)cc1)C=Cc1ccc(C(F)(F)F)cc1
- mortality at 300 ppm [1]: 0 to 40%

SMILES: CCCCCCCC(=O)N1CCCCN=C1NN=C(C=Cc1ccc(C(F)(F)F)cc1)C=Cc1ccc(C(F)(F)F)cc1
- mortality at 300 ppm [1]: 0 to 40%

SMILES: CC1(C)CN=C(NN=C(C=Cc2ccc(C(F)(F)F)cc2)C=Cc2ccc(C(F)(F)F)cc2)N(C(=O)C=Cc2ccccc2)C1
- mortality at 300 ppm [1]: 0%
- mortality at 1000 ppm [3]: 0%

SMILES: CCCCCCCCCCCCCC(=O)N1CC(C)(C)CN=C1NN=C(C=Cc1ccc(C(F)(F)F)cc1)C=Cc1ccc(C(F)(F)F)cc1 [R1=CF3, R3=n-C13 H27]
- mortality at 10 ppm [2]: 0%
- mortality at 100 ppm [2]: 90%
- mortality at 1000 ppm [2]: 100%
- mortality at 100 ppm [3]: 0%
- mortality at 1000 ppm [3]: 100%
- mortality at 10 ppm [4]: 0%
- mortality at 100 ppm [4]: 60%
- mortality at 1000 ppm [4]: 100%
